Data taken from patent US8153787B2 (priority 2005, dated 2012).
≈ marks a conversion by molar mass, not a printed value. Like-named read-outs stand apart in the source and are kept apart here.

Experiments:
Vaccinia virus [1] = test: microbe, parasite or virus in culture; type: cell-based; details: Orthopoxvirus vaccinia, read-out: EC50 vaccinia virus
in vitro [2] = details: human
[3] = system: herpes simplex virus type 1 (HSV-1); test: microbe, parasite or virus in culture; type: cell-based; details: Human alphaherpesvirus 1, HEL, read-out: EC50 HSV-1 (Kos strain)
[4] = system: herpes simplex virus type 2 (HSV-2); test: microbe, parasite or virus in culture; type: cell-based; details: Human alphaherpesvirus 2, HEL, read-out: EC50 HSV-2 (G strain)
[5] = system: Varicella-Zoster Virus (VZV); test: microbe, parasite or virus in culture; type: cell-based; details: Human alphaherpesvirus 3, HEL
[6] = system: Human Cytomegalovirus (HCMV); test: microbe, parasite or virus in culture; type: cell-based
Vaccinia virus [7] = test: organism not typed; type: cell-based; details: HEL
Cowpox virus (Brighton) = test: microbe, parasite or virus in culture; type: cell-based; details: Cowpox virus, HEL, read-out: EC50 Cowpox virus Brighton
Orf virus (NZ2) = test: microbe, parasite or virus in culture; type: cell-based; details: Orf virus, HEL, read-out: EC50 Orf virus NZ2
[8] = system: primate polyomavirus (SV40); test: microbe, parasite or virus in culture; type: cell-based, simian polyomavirus SV40; details: for EC50: Polyomavirus sp., BSC-1, in Primates
murine polyomavirus = test: microbe, parasite or virus in culture; type: cell-based; details: for EC50: Alphapolyomavirus muris, UC1, UC1B
HEL cells = details: HEL cells, microscopy
HSB-2 cells = details: human
MOLT-3 cells = details: human
in vitro [9] = details: human; remark: listed apart in the source
in vitro [10] = details: African green monkey
in vitro [11] = details: mouse
in vitro [12] = details: human; remark: listed apart in the source
[13] = read-out: antiviral activity (EC50) SV40 PML-1 strain EK
[14] = read-out: antiviral activity (EC50) SV40 PML-2 strain DAR
[15] = read-out: antiviral activity (EC50) SV40 strain A2895
[16] = read-out: antiviral activity (EC50) 2PTA2
[17] = read-out: antiviral activity (EC50) MN/RDE Toronto

| Compound | selectivity index SV40 PML-1 strain EK [8] | selectivity index SV40 PML-2 strain DAR [8] | selectivity index SV40 strain A2895 [8] | EC50 [8, 13] [µg/mL] | EC50 [8, 14] [µg/mL] | EC50 [8, 15] [µg/mL] | selectivity index 2PTA2 (murine polyomavirus) | selectivity index MN/RDE Toronto (murine polyomavirus) | EC50 (murine polyomavirus; [16]) [µg/mL] | EC50 (murine polyomavirus; [17]) [µg/mL] | Toxicity MCC (microscopy), HSB-2 cells (HSB-2 cells) [µg/mL] | CC50 (in vitro [10]) [µg/mL] | CC50 (in vitro [11]) [µg/mL] | other results |
| --- | --- | --- | --- | --- | --- | --- | --- | --- | --- | --- | --- | --- | --- | --- |
| NC1=NC(=O)N(C[C@@H](CO)OCP(=O)(O)O)CN1 [5,6-dihydro derivative of HPMP-5-azaC, (S)-1-[3-Hydroxy-2-(phosphonomethoxy)propyl]-5,6-dihydro-5-azacytosine] |  |  |  |  |  |  |  |  |  |  |  |  |  | EC50 (Vaccinia virus [1]): 38 µg/mL (≈ 135 µM); CC50 (in vitro [2]): 120 µg/mL (≈ 425 µM) |
| Nc1nc2c(ncn2COCCO)c(=O)[nH]1 [Acyclovir, reference compound] |  |  |  |  |  |  |  |  |  |  |  |  |  | EC50 [3]: 0.032 µg/mL (≈ 0.142 µM); EC50 [4]: 0.032 µg/mL (≈ 0.142 µM) |
| NC(=NC(=O)NC[C@@H](CO)OCP(=O)(O)O)NC=O.[Na] [Compound 3a, Sodium 3-formyl-2-{[(2S)-3-hydroxy-2-(phosphono-methoxy)propyl]carbamoyl}guanidine] | >20 | >24 | >34 | 10 | 8.24 | 5.92 | >13 | >26 | 14.8 | 7.57 | >200 | > 200 | > 200 | EC50 ([5]; read-out: EC50 VZV 07/1 strain (HEL cells)): 0.046 µg/mL; EC50 ([5]; read-out: EC50 VZV OKA strain (HEL cells)): 0.042 µg/mL; EC50 ([6]; Human betaherpesvirus 5, AD169, HEL, read-out: EC50 HCMV AD-169 strain (HEL cells)): 0.1 µg/mL; EC50 ([6]; Human betaherpesvirus 5, HEL, read-out: EC50 HCMV Davis strain (HEL cells)): 0.12 µg/mL; EC50 (Vaccinia virus [7]; read-out: EC50 Vaccinia Virus Lister): 7.61 µg/mL; EC50 (Vaccinia virus [7]; Orthopoxvirus vaccinia, read-out: EC50 Vaccinia Virus Copenhagen): 5.84 µg/mL; EC50 (Vaccinia virus [7]; Orthopoxvirus vaccinia, read-out: EC50 Vaccinia Virus Lederle): 7.97 µg/mL; EC50 (Vaccinia virus [7]; Orthopoxvirus vaccinia, read-out: EC50 Vaccinia Virus WR): 6.34 µg/mL; EC50 (Cowpox virus (Brighton)): 12.6 µg/mL; EC50 (Orf virus (NZ2)): 0.37 µg/mL; Toxicity MCC (microscop) (HEL cells): >100 µg/mL; Toxicity MCC (microscopy), MOLT-3 cells (MOLT-3 cells): 200 µg/mL; CC50 at 3 days (in vitro [9]): > 50 µg/mL; CC50 (in vitro [12]): > 100 µg/mL |
| NC(N)=NC(=O)NC[C@@H](CO)OCP(=O)(O)O [Compound 10, 2-{[(2S)-3-Hydroxy-2-(Phosphonomethoxy)propyl]carbamoyl}guanidine] | 1 | 1 | 1 | > 200 | > 200 | > 200 | 1 | 1 | > 200 | > 200 | >200 | > 200 | > 200 | selectivity index LID-1 (murine polyomavirus): 1; selectivity index PTA (murine polyomavirus): 1; EC50 (murine polyomavirus; read-out: antiviral activity (EC50) LID-1): > 200 µg/mL; EC50 (murine polyomavirus; read-out: antiviral activity (EC50) PTA): > 200 µg/mL |
